Reference: patent US7169792B2, “Method of treating bacterial infections using gemifloxacin or a salt thereof and a β-lactam antibiotic” (priority 2002, dated 2007)
Like-named read-outs stand apart in the source and are kept apart here.

Experiments:
[1] = test system: clinically isolated P. aeruginosa; assay: checkerboard titration, gemifloxacin or ciprofloxacin with ceftazidime, 27 clinical isolates (Example 4); assay type: cell-based, Pseudomonas aeruginosa; conditions: for FICA: FIC of gemifloxacin; for Cgemifloxacin MIC: in combination with ceftazidime; for MIC: Pseudomonas aeruginosa, drug alone, read-out: gemifloxacin MIC
Method: The test organisms were clinical isolates collected in Korea. Organisms were frozen at −70 C prior to testing. Testing was done by the checkerboard method in 96-well plates using Mueller-Hinton broth. […] Ceftazidime was also dispensed alone in the first row in the first column. Test strains of P. aeruginosa were grown for 18 h in Mueller-Hinton broth, and then these overnight cultures were diluted with the same fresh medium to the density of approximately 10^7 CFU/mL. The bacterial concentrations were determined by measuring optical density or turbidity of the suspension and were verified by standard colony counts on antibiotic-free agar plates. A diluted bacterial solution was applied to 96-well plates containing serially diluted antimicrobial agents to yield 10^4 CFU per spot. Plates were incubated aerobically overnight.
Minimal inhibitory concentrations (MICs) for each separate drug were determined. For wells along the growth-no growth interface, synergy was determined by calculating the Fractional Inhibitory Concentration (FIC) index. The Fractional Inhibitory Concentration (FIC) indices were calculated using the following formula: FICindex=FICA+FICB=[A]/MICA+[B]/MICB • Wherein: • FICA(or B), is the FIC of drug A (or B) MICA (or B) is the MIC of the organism to drug A (or B) • A (or B) is concentration of drug A (or B) that is the lowest inhibitory concentration
The FIC indices were interpreted using the following criteria: • ≦0.5=Synergy • >0.5–1.0=Additive • >1.0–4.0=Indifference • >4.0=Antagonism

E. faecalis ATCC 29212 = assay: checkerboard titration, gemifloxacin and cefotaxime (MIC, FIC); assay type: cell-based, Enterococcus faecalis
Method: 1) The combined effect of gemifloxacin and cefotaxime was investigated in E. faecalis by using a checkerboard titration method. Evaluation for synergistic activity was carried out by calculation of fractional inhibitory concentrations (FICs) according to the method of Eliopoulos et al (1996, Antimicrobial Combinations, Antibiotics in Laboratory Medicine, Victor Lorian, 4th Edition, pp 337–338, Baltimore, Md., Williams and Wilkins).
E. faecalis ATCC 29212 was obtained from the SmithKline Beecham Anti-Infectives Research Culture Collection and stored at −80° C. in 10% glycerol. Before testing, the isolate was passaged onto agar plates (trypticase soy agar containing 5% sheeps blood) from the frozen stock for two consecutive days. Cation adjusted Mueller Hinton broth (BBL, Cockeysville, Md.) was used for the isolate.
Checkerboard microtitre broth dilution plates were prepared using the Hamilton MicroLab AT Plus system (Reno, Nev.). Two-fold serial dilutions (50 μl) of cefotaxime were made in columns 1 through 11 of a microtitre plate. Two-fold serial dilutions of gemifloxacin were prepared manually and the MicroLab AT Plus was used to dispense 25 μl of gemifloxacin at each concentration into rows A through G of the microtitre plate. The concentration range tested varied for each drug/organism combination to encompass the MIC endpoints of the individual components. Column 12 contained two fold serial dilutions of gemifloxacin only, and row H contained two fold serial dilutions of cefotaxie only. The last well (H) in column 12 was used as a positive growth control well, containing only medium and test isolate.
The bacteria were diluted to a 0.5 McFarland standard and then further diluted 1/50. Each well was inoculated with 25 μl of the isolate to give a final inoculum density of approximately 5×10^5 cfu/ml. The MicroLab AT Plus 2 was used to add the inoculum to the microtitre plates. After inoculation, the plates were covered with a 96 well microtitre plate lid and incubated at 35° C. in ambient air for 20–24 hours. A 10 μl aliquot of the inoculum was plated on trypticase soy agar containing 5% sheep blood to determine the purity of the final test inoculum.
Following incubation, a microtitre mirror reader (Cooke Instruments Ltd., England) was used to assist in determining the microdilution MIC endpoints. The MIC was determined as the lowest concentration of compound that inhibited visible growth of the organism.
The Fractional Inhibitory Concentrations (FICs) were calculated using the following formula: (A)/(MICA)+(B)/(MICB)=FICA+FICB=FICIndex wherein: • A is the MIC of drug A in the presence of drug B • B is the MIC of drug B in the presence of drug A • MIC A is the MIC of the organism to drug A alone • MIC B is the MIC of the organism to drug B alone • FIC A is the fractional inhibitory concentration of drug A • FIC B is the fractional inhibitory concentration of drug B
The FIC indices were interpreted using the following criteria: • ≦0.5=Synergy • >0.5–1=Additive • >1–2=Indifference • >2=Antagonism

MIC range ([1]; 27 clinically isolated P. aeruginosa): 0.25 to 32 µg/mL
Cgemifloxacin MIC ([1]; P. aeruginosa 6003): 0.25 µg/mL
Cgemifloxacin MIC ([1]; P. aeruginosa 6021): 0.25 µg/mL
Cgemifloxacin MIC ([1]; P. aeruginosa 6030): 0.125 µg/mL
Cgemifloxacin MIC ([1]; P. aeruginosa 6045): 1 µg/mL
Cgemifloxacin MIC ([1]; P. aeruginosa 6047): 1 µg/mL
Cgemifloxacin MIC ([1]; P. aeruginosa 6113): 0.125 µg/mL
Cgemifloxacin MIC ([1]; P. aeruginosa 6123): 0.125 µg/mL
Cgemifloxacin MIC ([1]; P. aeruginosa 6173): 0.125 µg/mL
Cgemifloxacin MIC ([1]; P. aeruginosa P032): 0.0625 µg/mL
Cgemifloxacin MIC ([1]; P. aeruginosa P036): 1 µg/mL
Cgemifloxacin MIC ([1]; P. aeruginosa P039): 0.5 µg/mL
MIC ([1]; P. aeruginosa 6003): 1 µg/mL
MIC ([1]; P. aeruginosa 6021): 1 µg/mL
MIC ([1]; P. aeruginosa 6030): 1 µg/mL
MIC ([1]; P. aeruginosa 6045): 4 µg/mL
MIC ([1]; P. aeruginosa 6047): 8 µg/mL
MIC ([1]; P. aeruginosa 6113): 0.5 µg/mL
MIC ([1]; P. aeruginosa 6123): 1 µg/mL
MIC ([1]; P. aeruginosa 6173): 1 µg/mL
MIC ([1]; P. aeruginosa P032): 0.5 µg/mL
MIC ([1]; P. aeruginosa P036): 8 µg/mL
MIC ([1]; P. aeruginosa P039): 2 µg/mL
MIC (E. faecalis ATCC 29212; Enterococcus faecalis, ATCC29212, in presence of cefotaxime 64 μg/ml, read-out: gemifloxacin MIC): 0.008 µg/mL
gemifloxacin MIC (E. faecalis ATCC 29212; drug alone, no unit in this line (other lines μg/ml)): 0.03
gemifloxacin MIC (E. faecalis ATCC 29212; in presence of cefotaxime 16 μg/ml): 0.008 µg/mL
gemifloxacin MIC (E. faecalis ATCC 29212; in presence of cefotaxime 32 μg/ml): 0.008 µg/mL
Structure (SMILES): CO/N=C1\CN(c2nc3c(cc2F)c(=O)c(C(=O)O)cn3C2CC2)CC1CN (racemic) [gemifloxacin, (R,S)-7-(3-aminomethyl-4-methoxyiminopyrrolidin-1-yl)-1-cyclopropyl-6-fluoro-4-oxo-1,4-dihydro-1,8-naphthyridine-3-carboxylic acid]
FICA ([1]; P. aeruginosa 6003): 0.25
FICA ([1]; P. aeruginosa 6021): 0.25
FICA ([1]; P. aeruginosa 6030): 0.13
FICA ([1]; P. aeruginosa 6045): 0.25
FICA ([1]; P. aeruginosa 6047): 0.13
FICA ([1]; P. aeruginosa 6113): 0.25
FICA ([1]; P. aeruginosa 6123): 0.13
FICA ([1]; P. aeruginosa 6173): 0.13
FICA ([1]; P. aeruginosa P032): 0.13
FICA ([1]; P. aeruginosa P036): 0.13
FICA ([1]; P. aeruginosa P039): 0.25
